Data set [1] relates to HBV. The experiment in a line: Inhibitory effect on HBV infection in infection model HepG2-hNTCP 2B1 (drug before infection). The class given is cell-based, hepatitis B virus. The following applies: 1, 5, 25 μM, drug from 24 h before infection to day 8, compared with blank group. An excerpt: The human sodium-taurocholate cotransporting polypeptide (hNTCP) gene and the red fluorescent protein (mCherry) gene were constructed in a bicistronic expression cassette regulated by tetracycline-inducible promoter, the expression cassette was stably integrated into HepG2-Tet On cells by using a lentiviral system, a stable cell line HepG2-hNTCP 2B1 with high expression of hNTCP was obtained by using flow cytometry sorting technology, and this cell model supported HBV infection and generated HBV-related indicators. (For the construction method of this cell model, please refer to: Ya-Li Zhang, Ying Gao, Jia-Li Cao, Jing-Hua Zhao, Tian-Ying Zhang, ChuanLai Yang, Hua-Long Xiong, Ying-Bin Wang, Shan-Hai Ou, Tong Cheng, Chang-Rong Chen, Quan Yuan & Ning-Shao Xia (2019), Robust in vitro assay for analyzing the neutralization activity of serum specimens against hepatitis B virus, Emerging Microbes & Infections, 8:1, 724-733, DOI: 10.1080/22221751.2019.1619485).
This experiment was carried out in a 24-well culture plate.
About 1.5×10^5 HepG2-hNTCP 2B1 cells were plated in each well, and 500 μL of medium B was added. After the cells adhered, medium A was used for replacement to perform the induction with Doxycycline during the whole experiment.
After 72 hours of the induction with Doxycycline, 500 μL of drug-containing medium A was added to each well to perform drug treatment for 24 h, and then the cells were infected with HBV, the virus amount for infection per well was 100 MOI. Before infection, HBV solution was obtained by diluting HBV in medium C, and the infection volume was 250 μL per well. […]
HBsAg (chemiluminescence enzyme immunoassay (CLEIA), product standard number: YZB/Guo 0346-2014) and HBeAg (enzyme-linked immunosorbent assay (ELISA), product standard number: YZB/Guo 0216-2013) were detected using the Beijing Wantai Company's detection kits, and the specifical detection operations were carried out according to the detection methods described in the instructions in the kits.
After the collected cells were washed with PBS, automated extraction was performed on a nucleic acid extraction workstation (purchased from GenMagBio, model: DOF-9696) using a viral DNA & RNA extraction kit (Beijing GenMagBio) (for the extraction procedure, please refer to the instrument manual) to obtain HBV DNA. The HBV DNA was quantified by probe real-time fluorescent quantitative PCR, in which the reagent used was Premix Ex Taq™ (Takara), the instrument used was Roche's LightCycler® 96, the primer sequences used for fluorescence quantification were shown in Table 1, and the fluorescence quantitative reaction system was shown in Table 2. […]

Data set [2] has as its system HBV. The data set is described as follows: Inhibitory effect on HBV infection in human primary hepatocytes (drug before infection). The class given is cell-based, hepatitis B virus. Conditions: 1, 5, 25 μM, treatment before infection, to day 8, p<0.05. An excerpt:
Primary hepatocytes were isolated from humanized mice transplanted with primary human hepatocytes through perfusion technique (refer to: Foquet, Lander, et al. “Successful engraftment of human hepatocytes in uPA-SCID and FRG® KO mice.” Hepatocyte Transplantation. Humana Press, New York, NY, 2017. 117-130, Wan-Chun Li, et al. “Isolation and Culture of Adult Mouse Hepatocytes.” Mouse Cell Culture. Humana Press, 2010. 185-196.), directly cultured in 24-well plates (Collagen I pre-coated 24-well plates, purchased from Thermo Scientific) after counting (about 5×10^5 primary hepatocytes per well), and medium H was added to maintain hepatocyte morphology (refer to: Xiang, Chengang, et al. “Long-term functional maintenance of primary human hepatocytes in vitro.” Science 364.6438 (2019): 399-402.). After culturing for 24 hours, drug-containing medium H was used to replace the drug-free medium H to perform drug treatment for 24 hours, and then infection was carried out with HBV, and the amount of HBV for infection in each well was 2000 MOI. Before infection, HBV was first diluted in medium I to obtain HBV solution, and the infection volume was 250 μL/well. During infection, the cell supernatant was first removed by suction, the HBV solution was added to the cells, the cells were incubated for 24 hours, then the supernatant was collected as the sample of Day 0. Then the cells were washed 3 times with PBS that was warmed in bath at 37° C., and fresh drug-containing medium H (500 μL per well) was used for replacement, then the supernatant was collected every two days for detection, fresh drug-containing medium H was used for replacement, until the 8th day, all the supernatants and cells were collected for relevant detection. The detection items included HBsAg, HBeAg, HBV DNA, HBV cccDNA, and for the detection method, please refer to Example 1.

Data set [3] concerns HepG2 hNTCP 2B1. The experiment in a line: Safety assessment, CCK-8 cell activity, HepG2-hNTCP 2B1. In kind it is cell-based. Conditions: 1 μM, 5 μM and 25 μM, 6 days treatment. Here is the method:
This experiment was carried out in a 96-well culture plate, with 8×10^4 corresponding cells plated in each well, and the corresponding medium volume was 100 μL, in which each drug to be tested in the HepG2-hNTCP 2B1, HepaRG M14A and primary hepatocyte experimental groups had three final concentrations of 1 μM, 5 μM and 25 μM, each drug to be tested in the HepAD38 cell experimental group had two final concentrations of 1 μM and 5 μM (the drug was diluted with the corresponding medium to the final concentrations, specifically please refer to Example 1, Example 2, Example 4 and Example 5), and to the blank group the same volume of culture medium without drug was added. After the cells had grown to a suitable density, drug was added to perform treatment for 6 days, during which, the medium was changed every two days with fresh drug-containing medium. After the drug treatment, 110 μL of medium containing Beyotime CCK-8 cell activity detection reagent (purchased from Beyotime, Art. No. C0038) (the volume ratio of medium to CCK-8 reagent was 100:10) was used for replacement, the cells were incubated at 37° C. for 30 min, and then all the supernatant was collected for detection of absorbance. The absorbance value was read on PHOMO microplate reader purchased from Zhengzhou Autobio.

Where [4] appears, read: p<0.05, dose-dependent in some extent.

On to `CC1(C)CCC(C)(C)c2cc(Cn3cccn3)c(/C=C/c3ccc(C(=O)O)cc3)cc21` [Palovarotene], for which the “level of HBV cccDNA” value in data set [1] (p<0.0001, dose-dependent in some extent) is on record as “effectively inhibit”. Moreover, the “level of intracellular HBV DNA” value in data set [1] (p<0.001, dose-dependent in some extent) is recorded as “effectively inhibit”. In data set [1] (setting [4]), the “level of HBeAg in the cell supernatant” value is “effectively inhibit” and the “level of HBsAg in the cell supernatant” value was “effectively inhibit”. In data set [2], the “level of HBeAg in the cell supernatant” value is “significantly inhibit”, the “level of HBsAg in the cell supernatant” value is given as “significantly inhibit”, the “level of intracellular HBV DNA” value is on record as “significantly inhibit” and the “level of intracellular cccDNA” value is “significantly inhibit”. Besides, the “CCK-8 absorbance value (cell activity) vs blank group” value in data set [3] is given as “not significantly different”.
